Laboratory results as given in patent US20080076824A1, “Compounds That Inhibit Replication Of Human Immunodeficiency Virus” (priority 2004, published 2008).
Several values for one entry are separate records, joined by “and”; a condition that tells them apart may be missing. Equal values may be shown once. Where a name gives a salt, the structure may show the parent alone.

Test: Microdose study of 14C-AlphaHGA in healthy volunteers, urine pharmacokinetics (AMS)
Format: in vivo, human
Conditions: for cumulative recovery of the dose in the urine over 24 hr: range; for AUCTmax / AUClast / Dlast / Dmax / Tmax / Tfirst / Tlast: urine
Protocol: In this example, the pharmacokinetics (PK) and oral bioavailability of AlphaHGA in adult healthy volunteers following a single ‘microdose’ in a sequence-randomized, cross-over study design (two periods 7 days apart) was determined. Clinical experiments were conducted with low-level radiolabelled (^14C) AlphaHGA administered intravenously (IV) orally (PO) with serial blood and urine samples were collected for concentration analysis utilizing accelerator mass spectrometry (AMS).
Accordingly, eight subjects were enrolled into a single dose cross-over study. The subjects were randomly assigned to one of two administration sequences. Subjects that were assigned to sequence 1 received AlphaHGA as an oral preparation first (Period 1) followed by the intravenous (IV) preparation 1 week later (Period 2). Subjects assigned to sequence 2 received AlphaHGA as an intravenous preparation first followed by the oral preparation 1 week later. Four subjects were assigned to sequence 1 and four subjects were assigned to sequence 2.
For both oral and IV doses subjects were administered 100 nCi (3.7 Kbq) of alphaHGA, which was determined to contain 1.602888×10ˆ6 fmol of ^14C. The specific activity of each dose was 46.619 MBq/mol (or 1.260 mCi/mol). A stock blend of ^14C-labelled alphaHGA was produced prior to the first study period. The actual formulations used for dosing were prepared on the morning prior to each study period. The infusion was a single bolus injection with both the infusion and flush were completed in less than 30 seconds.
Urine samples were collected at pre-dose and during post-dose time intervals: 0 to 4, 4 to 8, 8 to 12, 12 to 16, and 16 to 24 hours. All urine collections were obtained. Cumulative urine voidings for the specified time intervals were collected in standard collection containers without additional modifiers or preservatives
Plasma specimens (30 μL) were analyzed directly via the combustive procedure without further chemical manipulation. For the purposes of calculating ^14C concentration per volume of plasma, a general carbon content of 45% (dry mass) was applied. The urine was mixed with equal volumes (0.5 mL) of a sucrose carbon diluent solution (200 g/L) and mixed by inversion in a disposable polypropylene centrifuge tube. A 20-μL sample was graphitized for AMS analysis according to standard procedures. The mass fraction of the urine represented in the measured sample was inverted and multipled by the ^14C contents above background derived from the AMS measurement to calculate the ^14C content in the total urine void. A density value of 1 g/mL for urine was assumed to calculate its volume from the recorded masses.
Area-under-the-plasma-concentration-time curve from time zero to the last quantified concentration (AUClast), was calculated by the linear trapezoidal method from the observed concentrations. Area-under-the concentration-time curve from time zero to infinity (AUCinf) was obtained as the sum of AUClast and the extrapolation term Clast/λz, where Clast denotes the last observed quantifiable concentration. The percentage of AUCinf obtained by extrapolation (AUC % extrap) was calculated as [(AUCinf−AUClast)/AUCinf]*100. It should be noted that the area for the IV plasma data will result in an underestimation of the AUC in the first trapezoid because the concentration at time 0 was set to 0 and there is not reasonable way to impute a value at time 0. Area-under-the-concentration-time curve from time zero to the maximum concentration (AUCTmax) was calculated by the linear trapezoidal method. […]. This approach was necessary given the nature of the parameters requested by the sponsor.
Values for the following PK parameters were estimated from urine levels of AlphaHGA during the various time intervals. […]

[1] = route iv, individual subjects 1-8, period 1 or 2, hydrochloride, dosing period 1
[2] = route iv, individual subjects 1-8, period 1 or 2, hydrochloride, dosing period 2
[3] = route po, individual subjects 1-8, period 1 or 2, dosing period 1
[4] = route po, individual subjects 1-8, period 1 or 2, dosing period 2
[5] = route po, individual subjects 1-8, period 1 or 2, hydrochloride, dosing period 1
[6] = route po, individual subjects 1-8, period 1 or 2, hydrochloride, dosing period 2

With `NC(=O)C(N)O` (stereo not drawn) [AlphaHGA, α-Hydroxy-glycinamide hydrochloride] the “cumulative recovery of the dose in the urine over 24 hr, mean” value (IV administration) was 63.7, the “cumulative recovery of the dose in the urine over 24 hr” value (IV administration) was 35-100% and the “cumulative recovery of the dose in the urine over 24 hr” value (oral administration) was 34-100%. For the same compound, the AUCTmax (Period 1, Max) was 748180 fmol·h, the AUClast (Period 1, Max) was 2934335 fmol·h and the Dlast (Period 1, Max) was 41355 fmol. The Dmax (Period 1, Max) was 374090 fmol, the AUCTmax (Period 1, Mean) was 654984 fmol·h and the AUClast (Period 1, Mean) was 2575235 fmol·h. For the same compound, the Dlast (Period 1, Mean) was 29774 fmol, the Dmax (Period 1, Mean) was 327492 fmol and the AUCTmax (Period 1, Min) was 459180 fmol·h. It also gave an AUClast (Period 1, Min) of 2239453 fmol·h, a Dlast (Period 1, Min) of 19395 fmol and a Dmax (Period 1, Min) of 229590 fmol. The AUCTmax (Period 2, Max) was 1882171 fmol·h, the AUClast (Period 2, Max) was 6993866 fmol·h and the Dlast (Period 2, Max) was 133040 fmol. The Dmax (Period 2, Max) was 941085 fmol, the AUCTmax (Period 2, Mean) was 1437891 fmol·h and the AUClast (Period 2, Mean) was 6007590 fmol·h. It also gave a Dlast (Period 2, Mean) of 98450 fmol, a Dmax (Period 2, Mean) of 718945 fmol and an AUCTmax (Period 2, Min) of 1207722 fmol·h. For the same compound, the AUClast (Period 2, Min) was 5220702 fmol·h, the Dlast (Period 2, Min) was 48888 fmol and the Dmax (Period 2, Min) was 603861 fmol. For the same compound, the AUCTmax (Route iv, Max) was 1489152 fmol·h, the AUClast (Route iv, Max) was 6540408 fmol·h and the Dlast (Route iv, Max) was 114767 fmol. For the same compound, the Dmax (Route iv, Max) was 744576 fmol, the AUCTmax (Route iv, Mean) was 964045 fmol·h and the AUClast (Route iv, Mean) was 4155954 fmol·h. The Dlast (Route iv, Mean) was 61864 fmol, the Dmax (Route iv, Mean) was 482022 fmol and the AUCTmax (Route iv, Min) was 459180 fmol·h. For the same compound, the AUClast (Route iv, Min) was 2368127 fmol·h, the Dlast (Route iv, Min) was 19716 fmol and the Dmax (Route iv, Min) was 229590 fmol. For the same compound, the AUCTmax (Route po, Max) was 1882171 fmol·h, the AUClast (Route po, Max) was 6993866 fmol·h and the Dlast (Route po, Max) was 133040 fmol. The Dmax (Route po, Max) was 941085 fmol, the AUCTmax (Route po, Mean) was 1128830 fmol·h and the AUClast (Route po, Mean) was 4426871 fmol·h. For the same compound, the Dlast (Route po, Mean) was 66360 fmol, the Dmax (Route po, Mean) was 564415 fmol and the AUCTmax (Route po, Min) was 710260 fmol·h. The AUClast (Route po, Min) was 2239453 fmol·h, the Dlast (Route po, Min) was 19395 fmol and the Dmax (Route po, Min) was 355130 fmol. It also gave a Tmax (route iv, individual subjects 1-8, period 1 or 2) of 4 h, a Tfirst (route iv, individual subjects 1-8, period 1 or 2, dosing period 1) of 4 h and a Tfirst (route iv, individual subjects 1-8, period 1 or 2, dosing period 2) of 4 h. The AUCTmax [1] was 684594 fmol·h and 543376 fmol·h and 639322 fmol·h and 459180 fmol·h, the AUClast [1] was 2934335 fmol·h and 2573446 fmol·h and 2551259 fmol·h and 2368127 fmol·h and the Dlast [1] was 32699 fmol and 40072 fmol and 41355 fmol and 19716 fmol. For the same compound, the Dmax [1] was 342297 fmol and 271688 fmol and 319661 fmol and 229590 fmol, the Tlast [1] was 24 h and the AUCTmax [2] was 1207722 fmol·h and 1479193 fmol·h and 1489152 fmol·h and 1209818 fmol·h. The AUClast [2] was 5505102 fmol·h and 5554250 fmol·h and 6540408 fmol·h and 5220702 fmol·h, the Dlast [2] was 48888 fmol and 88098 fmol and 109317 fmol and 114767 fmol and the Dmax [2] was 603861 fmol and 739597 fmol and 744576 fmol and 604909 fmol. For the same compound, the Tlast [2] was 24 hr (3×) and 16 hr, the Tmax (route po, individual subjects 1-8, period 1 or 2) was 4 h and the Tfirst [3] was 4 h. It also gave a Tlast [3] of 24 h, a Tfirst [4] of 4 h and a Tlast [4] of 24 h. The AUCTmax [5] was 727839 fmol·h and 710260 fmol·h and 727119 fmol·h and 748180 fmol·h, the AUClast [5] was 2696170 fmol·h and 2239453 fmol·h and 2618588 fmol·h and 2620500 fmol·h and the Dlast [5] was 22280 fmol and 30936 fmol and 19395 fmol and 31737 fmol. The Dmax [5] was 363920 fmol and 355130 fmol and 363559 fmol and 374090 fmol, the AUCTmax [6] was 1882171 fmol·h and 1326533 fmol·h and 1425912 fmol·h and 1482625 fmol·h and the AUClast [6] was 6993866 fmol·h and 6127092 fmol·h and 6093252 fmol·h and 6026045 fmol·h. For the same compound, the Dlast [6] was 80465 fmol and 133040 fmol and 109798 fmol and 103226 fmol and the Dmax [6] was 941085 fmol and 663266 fmol and 712956 fmol and 741313 fmol.
